From patent publication US12635686B2, “Compositions and methods for imposing seed quality” (priority 2014, dated 2026)

Key:
Assay type in all cases: in vivo
[1] = tested on: Inbred Seed Corn; experiment: Seed size and shape evaluation of seed from treated field plots (estimated units, bag weight, proportions); conditions: for % RDS: rounds as share of all units; for ABOVE 25: seed above size 25; for BELOW 17: seed below size 17; for EST. UNITS, total: sum of the four size/shape categories
Protocol: In an actively growing seed corn field scheduled to be treated with Drexel Defol® 750, four test plots were evaluated. Two plots were treated with Drexel Defol® 5, a sodium chlorate formulation containing 5 pounds of active sodium chlorate per gallon, and with varying amounts of cyanate anions. Sodium cyanate salt was used as the source of cyanate for its compatibility with sodium chlorate. The results of these two treatments were compared to an untreated check and a plot treated with Defol® 750, which contained 7.5 pounds of active sodium chlorate per gallon. The amount of active sodium chlorate applied in the three treated plots was equivalent.
• Crop: Inbred Seed Corn • Variety: A0036RMQKZ×HCL4011 • Plot Sizes: 5 acres for Plots 1-3; 7 acres for Plot 4 • Plot Location: Near Oxford, WI • Season/Year: Summer/2013 • Corn Stage: Full Dent • Application Equipment: Case Patriot Sprayer • Application Conditions: Temperature: 86° F. • Sky: Sunny • Wind: 4 mph • Application Diluent: Water • Application Volume: 20 gallons per acre • Number of full days between application and harvest: 24 days • Post Harvest Seed • Treatment: CruiserMaxx® Corn 250 Test Plot Treatments: • Plot 1—Untreated Check • Plot Size: 5 acres • Plot 2—Treatment A • Defol® 5: 4.8 quarts per acre • Sodium cyanate: 6.4 grams per acre • Water: 75.2 quarts per acre • Plot Size: 5 acres • Plot 3—Treatment B • Defol® 5: 4.8 quarts per acre • Sodium cyanate: 15.9 grams per acre • Water: 75.2 quarts per acre • Plot size: 5 acres • Plot 4—Defol® 750 Treatment Check • Defol® 750: 3.2 quarts per acre • Water: 76.8 quarts per acre • Plot size: 7 acres
Samples of corn seed from each of the four test plots were evaluated for seed size, shape, as well as germination under certain test conditions: warm germination, cold germination and saturated cold germination. Each of the four evaluated categories (i.e., 26/21 Round, 21/17 Round, 26/21 Flat, 21/17 Flat) constituted desirable and saleable seed size and shape. Evaluation was performed at Biodiagnostics, Inc., River Falls, WI. The results were as follows:
• Crop: Inbred Seed Corn • Variety: D2507VT3P • Plot Location: Jackson, WI • Season/Year: Summer/2014 • Corn Stage at Application: to Full Dent • Moisture at Application: 42% • Application Equipment: Case Patriot Sprayer • Application Conditions: Temperature: 88-90° F. • Sky: Clear • Wind: 2-3 mph • Application Diluent: Water • Application Volume: 20 gallons per acre • Number of full days between application and harvest: 8 days • Post Harvest Seed Treatment: CruiserMaxx® Corn 250 Test Plot Treatments: • Plot 1—Untreated Check • Plot Size: Balance of Field • Plot 2—Treatment A • Defol® 5: 4.8 quarts per acre • Sodium cyanate: 6.4 grams per acre • Water: 75.2 quarts per acre • Plot Size: 16 acres • Plot 3—Defol® 750 Treatment Check • Defol® 750: 3.2 quarts per acre • Water: 76.8 quarts per acre • Plot Size: 16 acres
Samples of corn seed from each of the three test plots were evaluated for desirable/saleable seed size and shape, as well as germination under certain test conditions: warm germination, cold germination and saturated cold germination. Each of the four evaluated categories (i.e., 24/21 Round, 21/17 Round, 24/21 Flat, 21/17 Flat) constituted desirable and saleable seed size and shape. The results were as follows: […]

[2] = tested on: Inbred Seed Corn; experiment: Cold germination test of harvested seed; conditions: for COLD GERM, sum: sum of the four size/shape categories
Source text: (§1) Seed quality can be evaluated by germination tests, such as warm germination, cold germination, and saturated cold germination. These types of tests are commonly used to predict seed germination and emergence. Among these tests, the saturated cold germination test exposes the seeds to cold, wet, and oxygen deficient stress, and is thus considered probative of seed germination viability over a range of field conditions. […]
(§2) • Crop: Inbred Seed Corn • Variety: D2905VT3P • Plot Location: New Haven, WI • Season/Year: Summer/2014 • Corn Stage at Application: to Full Dent • Moisture at Application: 44% • Application Equipment: Case Patriot Sprayer • Application Conditions: Temperature: 88-90° F. • Sky: Clear • Wind: 2-3 mph • Application Diluent: Water • Application Volume: 20 gallons per acre • Number of full days between application and harvest: 10 days • Post Harvest Seed Treatment: CruiserMaxx® Corn 250 Test Plot Treatments: • Plot 1—Untreated Check • Plot Size: Balance of Field • Plot 2—Treatment A • Defol® 5: 4.8 quarts per acre • Sodium cyanate: 6.4 grams per acre • Water: 75.2 quarts per acre • Plot Size: 16 acres • Plot 3—Defol® 750 Treatment Check • Defol® 750: 3.2 quarts per acre • Water: 76.8 quarts per acre • Plot Size: 16 acres • Plot 4—Treatment B • Sodium cyanate: 6.4 grams per acre • Water: 80 quarts per acre • Plot Size: 16 acres
(§3) Samples of corn seed from each of the three test plots were evaluated for desirable/saleable seed size and shape, as well as germination under certain test conditions: warm germination, cold germination and saturated cold germination. Each of the four evaluated categories (i.e., 24/21 Round, 21/16 Round, 24/21 Flat, 21/16 Flat) constituted desirable and saleable seed size and shape. The results were as follows:
as §2, with “D3910VT2P” for “D2905VT3P”, “Springville,” for “New Haven,”, “Very early start of dent” for “to Full Dent”, “50-55%” for “44%”, “17” for “10”
as §3, with “25/20” for “24/21”, “20/16” for “21/16”, “shape.” for “shape. The results were as follows:”

[3] = tested on: Inbred Seed Corn; experiment: Saturated cold (super cold) germination test of harvested seed; conditions: for SUPER COLD, sum: sum of the four size/shape categories
Source text: Seed quality can be evaluated by germination tests, such as warm germination, cold germination, and saturated cold germination. These types of tests are commonly used to predict seed germination and emergence. Among these tests, the saturated cold germination test exposes the seeds to cold, wet, and oxygen deficient stress, and is thus considered probative of seed germination viability over a range of field conditions.
The term “seed vigor” refers to a measure of the quality of a seed assemblage based on certain properties, such as percent germination, which can predict seed germination and emergence under a wide range of field conditions, particularly stress conditions. The methodology of the present disclosure can be followed to produce a seed assemblage that is characterized by enhanced seed vigor, as determined by seed vigor testing. […] One such technique is known as the saturated cold germination test. According to the Seed Vigor Testing Handbook by the Association of Official Seed Analysts (2009), the saturated cold germination test is the most stressful of various cold-test procedures for determining the vigor of a seed assemblage. In this test, the soil or planting medium is maintained at 100% water holding capacity for the duration of the test, which also subjects seeds to sub-optimal temperatures and soil-borne pathogens. These conditions evaluate seeds based on their response to three stress factors: imbibitional chilling injury, attack by soil-borne pathogens, and limited oxygen availability. These harsh conditions can allow testers to discriminate between seed assemblages differing in vigor, and thus the saturated cold germination test can act as a good indicator of seed quality for many crops. […]
as §2
as §3, with “follows: […]” for “follows:”

[4] = tested on: Inbred Seed Corn; experiment: Warm germination test of harvested seed; conditions: for WARM GERM, sum: sum of the four size/shape categories
Source text: as §1, §2, §3
as §2, with “D3910VT2P” for “D2905VT3P”, “Springville,” for “New Haven,”, “Very early start of dent” for “to Full Dent”, “50-55%” for “44%”, “17” for “10”
as §3, with “25/20” for “24/21”, “20/16” for “21/16”, “shape.” for “shape. The results were as follows:”

[5] = Example 2 Hybrid 2 (D2905VT3P, 2014), seed size 21/16F
[6] = Example 2 Hybrid 2 (D2905VT3P, 2014), seed size 21/16R
[7] = Example 2 Hybrid 2 (D2905VT3P, 2014), seed size 24/21F
[8] = Example 2 Hybrid 2 (D2905VT3P, 2014), seed size 24/21R
[9] = Example 2 Hybrid 2, column headed GRAMS in the 8th table
[10] = Example 2 Hybrid 3 (D3910VT2P, 2014), seed size 20/16F
[11] = Example 2 Hybrid 3 (D3910VT2P, 2014), seed size 20/16R
[12] = Example 2 Hybrid 3 (D3910VT2P, 2014), seed size 25/20F
[13] = Example 2 Hybrid 3 (D3910VT2P, 2014), seed size 25/20R
[14] = Example 2 Hybrid 3, column headed GRAMS in the 12th table

Structure (SMILES): N#CO [Cyanate, Sodium cyanate]
- EST. BAG WT. [1, 5]: 40.5 lbs
- EST. UNITS [1, 5]: 198
- EST. BAG WT. [1, 6]: 45.7 lbs
- EST. UNITS [1, 6]: 392
- EST. BAG WT. [1, 7]: 51.6 lbs
- EST. UNITS [1, 7]: 180
- EST. BAG WT. [1, 8]: 60.5 lbs
- EST. UNITS [1, 8]: 253
- % SF OF ALL FL ([1]; Example 2 Hybrid 2, 21/16F units as share of 24/21F and 21/16F): 52.38%
- % SR OF ALL RDS ([1]; Example 2 Hybrid 2, 21/16R units as share of 24/21R and 21/16R): 60.78%
- % RDS ([1]; Example 2 Hybrid 2): 63.05%
- ABOVE 25 [1, 9]: 5
- BELOW 17 [1, 9]: 21
- EST. UNITS, total ([1]; Example 2 Hybrid 2): 1023
- yields and proportions of seed at desirable and saleable sizes and shapes ([1]; Example 2 Hybrid 2 and Hybrid 3, compared to the Untreated Checks): higher yields and proportions
- EST. BAG WT. [1, 10]: 40.1 lbs
- EST. UNITS [1, 10]: 232
- EST. BAG WT. [1, 11]: 42.7 lbs
- EST. UNITS [1, 11]: 218
- EST. BAG WT. [1, 12]: 50.6 lbs
- EST. UNITS [1, 12]: 361
- EST. BAG WT. [1, 13]: 57 lbs
- EST. UNITS [1, 13]: 234
- % SF OF ALL FL ([1]; Example 2 Hybrid 3, 20/16F units as share of 25/20F and 20/16F): 39.12%
- % SR OF ALL RDS ([1]; Example 2 Hybrid 3, 20/16R units as share of 25/20R and 20/16R): 48.23%
- % RDS ([1]; Example 2 Hybrid 3): 43.25%
- ABOVE 25 [1, 14]: 4
- BELOW 17 [1, 14]: 23
- EST. UNITS, total ([1]; Example 2 Hybrid 3): 1045
- bag weight, in words ([1]; Examples 1 and 2, compared to the Untreated Check): more desirable bag weights
- COLD GERM [2, 5]: 98%
- COLD GERM [2, 6]: 96%
- COLD GERM [2, 7]: 99%
- COLD GERM [2, 8]: 96%
- COLD GERM, sum ([2]; Example 2 Hybrid 2): 389%
- COLD GERM [2, 10]: 95%
- COLD GERM [2, 11]: 95%
- COLD GERM [2, 12]: 96%
- COLD GERM [2, 13]: 97%
- COLD GERM, sum ([2]; Example 2 Hybrid 3): 383%
- seed vigor based on the super cold germination percentage ([3]; Example 2, over the Untreated Checks, particularly Hybrid 3): increased seed vigor
- SUPER COLD [3, 5]: 95%
- SUPER COLD [3, 6]: 92%
- SUPER COLD [3, 7]: 97%
- SUPER COLD [3, 8]: 99%
- SUPER COLD, sum ([3]; Example 2 Hybrid 2): 383%
- SUPER COLD [3, 10]: 90%
- SUPER COLD [3, 11]: 92%
- SUPER COLD [3, 12]: 95%
- SUPER COLD [3, 13]: 95%
- SUPER COLD, sum ([3]; Example 2 Hybrid 3): 372%
- WARM GERM [4, 5]: 96%
- WARM GERM [4, 6]: 96%
- WARM GERM [4, 7]: 99%
- WARM GERM [4, 8]: 98%
- WARM GERM, sum ([4]; Example 2 Hybrid 2): 389%
- WARM GERM [4, 10]: 98%
- WARM GERM [4, 11]: 96%
- WARM GERM [4, 12]: 99%
- WARM GERM [4, 13]: 99%
- WARM GERM, sum ([4]; Example 2 Hybrid 3): 392%
